Laboratory results reported in US20240360178A1, “MACROCYCLIC IMMUNOMODULATORS” (Bristol-Myers Squibb Company, priority 2021, published 2024).
Positions of bridges follow the written chain, without caps; N, C: chain ends. Non-standard residues stand in square brackets, D forms with d. Residues, ends and D or L forms follow the SMILES beside them. ξ: configuration not given here. *: point of attachment. Phe(4-COOH) = N[C@@H](Cc1ccc(C(=O)O)cc1)C(=O)O; Bip = N[C@@H](Cc1ccc(-c2ccccc2)cc1)C(=O)O; Phe(3-Me) = Cc1cccc(C[C@H](N)C(=O)O)c1; NMeY = CN[C@@H](Cc1ccc(O)cc1)C(=O)O; 4Pal = N[C@@H](Cc1ccncc1)C(=O)O; Cha = N[C@@H](CC1CCCCC1)C(=O)O; Thr(3ξ) = CC(O)[C@H](N)C(=O)O; Carboxymethyl = O=C(O)C*; NMeA = CN[C@@H](C)C(=O)O; Orn = NCCC[C@H](N)C(=O)O; dNMeA = CN[C@H](C)C(=O)O; Dab = NCC[C@H](N)C(=O)O; Dap = NC[C@H](N)C(=O)O

Biological target: T1, human PD-1 (Jurkat-PD-1 cells) / PE-labeled human PD-L1-Ig (Homo sapiens, UniProt Q15116)
T1 construct: expressed in transfected cells; host or cells: Jurkat cell line over-expressing human PD-1
Assay: Jurkat-PD-1 Cell Binding High-Content Screening Assay (CBA); Jurkat hPD1-PDL1 assay
Settings: Jurkat cell line over-expressing human PD-1; PE-labeled PD-L1-Ig 20 nM final; compound incubated 2 hours at 37° C.; read-out: Jurkat HPD1-PDL1 IC50
Procedure, shortened: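 Jurkat-hPD-1 cells; cpd 2 h, 37° C; then PE-PD-L1-Ig 20 nM final in DMEM/10% FCS; high-content imaging read-out.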

T1 sequence (Q15116 25-288): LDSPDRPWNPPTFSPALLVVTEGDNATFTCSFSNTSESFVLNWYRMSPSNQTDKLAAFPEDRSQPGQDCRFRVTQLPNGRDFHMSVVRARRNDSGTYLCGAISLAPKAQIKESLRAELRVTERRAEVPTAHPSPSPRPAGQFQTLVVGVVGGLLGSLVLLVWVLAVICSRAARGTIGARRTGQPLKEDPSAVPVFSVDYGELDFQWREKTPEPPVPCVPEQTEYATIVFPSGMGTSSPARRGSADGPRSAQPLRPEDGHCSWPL

Row | IC50 | Compound
1 | 80 nM | CC(C)C[C@@H]1NC(=O)[C@H](Cc2c[nH]c3ccccc23)NC(=O)[C@H](CC(=O)O)NC(=O)[C@H](Cc2ccc(OCC(=O)O)cc2)NC(=O)[C@H](Cc2ccc(OCC(=O)O)cc2)NC(=O)CSC[C@@H](C(=O)N[C@@H](C)C(N)=O)NC(=O)[C@H](CO)NC(=O)[C@H](C(C)C)NC(=O)[C@H](CC(C)C)NC(=O)[C@H](CC(N)=O)NC(=O)[C@H]2CCCN2C(=O)[C@H](C)N(C)C(=O)[C@H](C(C)C)NC(=O)[C@H](Cc2ccc(-c3ccccc3)cc2)NC1=O [Example 1432] ({CH2CO}-Y(Carboxymethyl)Y(Carboxymethyl)DWL[Bip]V[NMeA][dP]NLVSCA-NH2; thioether N-14)
2 | 260 nM | CC(C)[C@@H]1NC(=O)[C@H](Cc2c[nH]c3ccccc23)NC(=O)[C@H](CC(=O)O)NC(=O)[C@H](Cc2ccc(C(=O)O)cc2)NC(=O)[C@H](Cc2ccc(OCC(=O)O)cc2)NC(=O)CSC[C@@H](C(=O)N[C@@H](C)C(N)=O)NC(=O)[C@H]([C@@H](C)O)NC(=O)[C@H](C(C)C)NC(=O)[C@H](CC2CCCCC2)NC(=O)[C@H](CCN)NC(=O)[C@H](Cc2ccc(O)cc2)N(C)C(=O)[C@H](CCCN)NC(=O)[C@H](CCC(=O)O)NC(=O)[C@H](Cc2ccc(-c3ccccc3)cc2)NC1=O [Example 1433] ({CH2CO}-Y(Carboxymethyl)[Phe(4-COOH)]DWV[Bip]E[Orn][NMeY][Dab][Cha]VTCA-NH2; thioether N-14)
3 | 100 nM | CC(C)[C@@H]1NC(=O)[C@H](Cc2c[nH]c3ccccc23)NC(=O)[C@H](CC(=O)O)NC(=O)[C@H](Cc2ccncc2)NC(=O)[C@H](CN)NC(=O)CSC[C@@H](C(=O)NCC(N)=O)NC(=O)[C@H](C(C)O)NC(=O)[C@H](C(C)C)NC(=O)[C@H](CC2CCCCC2)NC(=O)[C@H](CCN)NC(=O)[C@@H](C)N(C)C(=O)[C@H](CCCN)NC(=O)[C@H](CN)NC(=O)[C@H](Cc2ccc(-c3ccccc3)cc2)NC1=O (stereo partly drawn) [Example 1434] ({CH2CO}-[Dap][4Pal]DWV[Bip][Dap][Orn][dNMeA][Dab][Cha]V[Thr(3ξ)]CG-NH2; thioether N-14)
4 | 90 nM | CC(C)C[C@@H]1NC(=O)[C@H](Cc2c[nH]c3ccccc23)NC(=O)[C@H](CC(=O)O)NC(=O)[C@H](Cc2ccncc2)NC(=O)[C@H](Cc2ccc(OCC(=O)O)cc2)NC(=O)CSC[C@@H](C(=O)N[C@@H](C)C(N)=O)NC(=O)[C@H](CO)NC(=O)[C@H](C(C)C)NC(=O)[C@H](CC(C)C)NC(=O)[C@H](CC(N)=O)NC(=O)[C@H]2CCCN2C(=O)[C@H](C)N(C)C(=O)[C@H](C(C)C)NC(=O)[C@H](Cc2ccc(-c3ccccc3)cc2)NC1=O [Example 1435] ({CH2CO}-Y(Carboxymethyl)[4Pal]DWL[Bip]V[NMeA][dP]NLVSCA-NH2; thioether N-14)
5 | 40 nM | Cc1cccc(C[C@@H]2NC(=O)[C@H](CC(=O)O)NC(=O)[C@H](Cc3ccc(C(=O)O)cc3)NC(=O)[C@H](Cc3ccc(OCC(=O)O)cc3)NC(=O)CSC[C@@H](C(=O)N[C@@H](C)C(N)=O)NC(=O)[C@H](CO)NC(=O)[C@H](C(C)C)NC(=O)[C@H](CC(C)C)NC(=O)[C@H](CC(N)=O)NC(=O)[C@H]3CCCN3C(=O)[C@H](C)N(C)C(=O)[C@H](C(C)C)NC(=O)[C@H](Cc3ccc(-c4ccccc4)cc3)NC(=O)[C@H](CC(C)C)NC2=O)c1 [Example 1436] ({CH2CO}-Y(Carboxymethyl)[Phe(4-COOH)]D[Phe(3-Me)]L[Bip]V[NMeA][dP]NLVSCA-NH2; thioether N-14)
6 | 30 nM | Cc1cccc(C[C@@H]2NC(=O)[C@H](CC(=O)O)NC(=O)[C@H](Cc3ccc(OCC(=O)O)cc3)NC(=O)[C@H](Cc3ccc(OCC(=O)O)cc3)NC(=O)CSC[C@@H](C(=O)N[C@@H](C)C(N)=O)NC(=O)[C@H](CO)NC(=O)[C@H](C(C)C)NC(=O)[C@H](CC(C)C)NC(=O)[C@H](CC(N)=O)NC(=O)[C@H]3CCCN3C(=O)[C@H](C)N(C)C(=O)[C@H](C(C)C)NC(=O)[C@H](Cc3ccc(-c4ccccc4)cc3)NC(=O)[C@H](CC(C)C)NC2=O)c1 [Example 1437] ({CH2CO}-Y(Carboxymethyl)Y(Carboxymethyl)D[Phe(3-Me)]L[Bip]V[NMeA][dP]NLVSCA-NH2; thioether N-14)
